Experimental data published in patent publication US20090005424A9, “Composition and Method for Treating Fibrotic Diseases” (priority 2005, published 2009).

Legend:
[1] = tested on: fibroblast; assay: Inhibition of fibroblast, side-by-side comparison of substituents; assay type: cell-based; conditions: structural formula II, n=1
[2] = tested on: Kidney Fibroblast; assay: MTT proliferation assay, mouse kidney fibroblast; assay type: cell-based
Method: (§1) Cell proliferation was measured by MTT assay. DMEM with 10% fetal serum was used as cell culture medium. The cells were prepared in suspension (1×10^5/ml), and 100 μL of the suspension was transferred to each well of a 96 wells plate. Once the cells were attached to the plastic, the culture was changed to serum free medium and continued for another 24 hours. The serum free medium was aspirated, and various concentrations of 1-(3′-fluorophenyl)-5-methyl-2(1H)-pyridone (AKF-PD) 1-(3′-bromophenyl)-5-methyl-2(1H)-pyridone (AKF-BR) or PIRFENIDONE (PFD) in 10% serum medium were added into each well with 5 replicates for each concentration. The cells were stained with MTT (10 μL per well) at 24, 48, and 72 hours post drug treatment. After 4 hrs of incubation, the medium with MTT was aspirated from each well. One hundred μL MTT solvent was added to each well for 15 min. The dissolved MTT was then measured with a plate reader at 570 nm.

[3] = tested on: Rat Pulmonary Fibroblasts; assay: MTT proliferation assay, rat pulmonary fibroblasts; assay type: cell-based
Method: as §1, with “and incubated” for “and continued”, “hours. Then, the” for “hours. The”, “(AKF-PD) or 1-(3′-bromophenyl)-5-Methyl-2(1H)-Pyridone” for “(AKF-PD) 1-(3′-bromophenyl)-5-methyl-2(1H)-pyridone (AKF-BR)”, “24, or 48” for “24, 48, and 72”, “15 min, and the” for “15 min. The”, “was” for “was then”

[4] = tested on: ICR mice injected with bleomycin; assay: Bleomycin-induced mouse pulmonary fibrosis, histological score of lung tissue; assay type: in vivo; conditions: AKF-PD and PFD 500 mg/kg, captopril 12.5 mg/kg by gavage day 1 to 28, Szapiel's method
Method: Under regular care condition, 7-10 weeks old, male, institute of cancer research (ICR) mice, weight 28-39 g, were randomly grouped as normal control, disease, disease/AKF-PD, disease/PFD and disease Captopril group.
Control group was injected with normal saline once day from day 2 to 15 days. Disease, disease/AKF-PD, disease/PFD and disease/captopril groups were injected with bleomycin once day from day 2 to 15. Control and disease groups were given 0.5% CMC by gavage once a day from day 1 to day 28. 500 mg/kg of AKF-PD CMC suspension and PD CMC suspension and 12.5 mg/kg captopril in saline were administered to respective groups by gavage once day from day 1 to day 28. All animals were sacrificed on day 29 and their lungs were removed for pathological (HE staining) examination.
Histological scoring for the lung tissue was done according Szapiel's method.

[5] = tested on: SD rat, Unilateral Ureteral Obstruction (UUO) model; assay: Rat UUO model of renal interstitial fibrosis, histological score (Example 8); assay type: in vivo; conditions: UUO rats; AKF-PD 500 mg/kg/d, Enalapril 10 mg/kg/d by gavage; 14 days post surgery; Radford's method
Method: Anti-fibrotic effect of AKF-PD was tested on a SD rat model for renal interstitial fibrosis induced by surgical ligation of single side ureter (Unilateral Ureteral Obstruction, UUO, model). Eight weeks old male SD rats (180 g˜220 g) were randomly divided into sham surgical group, disease model group, Enalapril (10 mg/kg/d) group and AKF-PD (500 mg/kg/d) group. […] The animals of the sham surgical group experienced the same surgical procedure except the ligation step. The respective drugs were administrated by gavage to rats in the groups of Enalapril and AKF-PD from one day prior to the procedure to 14 days post surgical procedure. Normal saline was administrated in a similar fashion to the rats in the groups of disease model and sham surgical. The animals were sacrificed 14 days after surgical procedure and their left kidney were removed for pathological (HE staining) examination. Histological scoring for interstitial compartment was done according to Radford's method (Radford et al., Predicting renal outcome in IgA nephropathy. J. Am. Soc. Nephrol. 8: 199-207(1997)).

[6] = tested on: Kun Ming (KM) mice infected with Schistosoma miracidium; assay: Schistosomial liver fibrosis in Kun Ming mice, egg granuloma area and immunohistology; assay type: in vivo; conditions: all after Pyquiton 650 mg/kg 4 days, AKF-PD 500 mg/kg daily gavage, γ-interferon 50,000 unit daily i.m., 8 weeks
Excerpt: Kun Ming (KM) mice were infected with Schistosoma miracidium to induce schistosomial liver fibrosis. […] Ten Schistosoma miracidium were placed on shaved abdominal skin of each mouse for infection. […] Five hundred mg/kg AKF-PD were given daily by gavage to the disinfected mice of infected/AKF-PD group. The disinfected mice were given (i.m.) 50,000 unit γ-interferon daily. […] Drug or normal saline treatment was continued for 8 weeks. All mice were sacrificed one week after discontinue of drug treatment, and the left lobe of liver from each mouse was taken for pathological examination. Examination of HE-stained slices of liver tissue were carried out as follows. In general, after 16 weeks of Schistosoma miracidia infection, the area of schistosomo egg granuloma would directly correlate to the severity of liver fibrosis. Therefore, the area of schistosomo egg granuloma was measured using a high-resolution, color pathology graphic analyzer (HPIAS-1000). The sum of area of 5 granuloma with abundant eggs and the sum of area of 5 granuloma with few eggs were measured for each slice.

**Q.** Cc1ccc(=O)n(-c2cccc(I)c2)c1 [1-(3′-iodophenyl)-5-methyl-2(1H)-pyridone] was tested. Which activity inhibiting fibroblast [1] did it give?
**A.** activities inhibiting fibroblast

**Q.** Which activity inhibiting fibroblast [1] does the source give for Cc1cccc(-n2cc(C)ccc2=O)c1 [5-methyl-1-(3′-methylphenyl)-2(1H)-pyridone] here?
**A.** activities inhibiting fibroblast

**Q.** Cc1ccc(=O)n(-c2cccc(Br)c2)c1 [AKF-BR, 1-(3′-bromophenyl)-5-methyl-2(1H)-pyridone] was tested. Which “inhibition of proliferation of kidney fibroblast” value [2] did it give?
**A.** capable of inhibiting the proliferation of kidney fibroblast

**Q.** And the “Optical Density at 570 nm” value ([2]; 100 μg/ml, 24 h)?
**A.** 0.5937 ± 0.0307

**Q.** And the “Optical Density at 570 nm” value ([2]; 100 μg/ml, 48 h)?
**A.** 0.5811 ± 0.0161

**Q.** What about the “Optical Density at 570 nm” value ([2]; 100 μg/ml, 72 h) of the same molecule?
**A.** 0.5363 ± 0.0158

**Q.** And the “Optical Density at 570 nm” value ([2]; 500 μg/ml, 24 h)?
**A.** 0.5895 ± 0.0253

**Q.** What about the “Optical Density at 570 nm” value ([2]; 500 μg/ml, 48 h) of the same molecule?
**A.** 0.5418 ± 0.0221

**Q.** And the “Optical Density at 570 nm” value ([2]; 500 μg/ml, 72 h)?
**A.** 0.4731 ± 0.0249

**Q.** What about the “Optical Density at 570 nm” value ([2]; 1000 μg/ml, 24 h) of the same molecule?
**A.** 0.5723 ± 0.0254

**Q.** What about the “Optical Density at 570 nm” value ([2]; 1000 μg/ml, 48 h) of the same molecule?
**A.** 0.5192 ± 0.0178

**Q.** And the “Optical Density at 570 nm” value ([2]; 1000 μg/ml, 72 h)?
**A.** 0.4161 ± 0.0249

**Q.** And the “order of inhibitory effect” value ([2]; kidney fibroblast)?
**A.** AKF-PD>AKF-BR>pirfenidone

**Q.** What about the “suppression of proliferation of rat pulmonary fibroblasts” value [3] of the same molecule?
**A.** could suppress proliferation of rat pulmonary fibroblasts

**Q.** And the “Optical Density at 570 nm” value ([3]; 100 μg/ml, 24 h)?
**A.** 0.1654 ± 0.0143

**Q.** And the “Optical Density at 570 nm” value ([3]; 100 μg/ml, 48 h)?
**A.** 0.1475 ± 0.0211

**Q.** What about the “Optical Density at 570 nm” value ([3]; 500 μg/ml, 24 h) of the same molecule?
**A.** 0.1342 ± 0.0237

**Q.** What about the “Optical Density at 570 nm” value ([3]; 500 μg/ml, 48 h) of the same molecule?
**A.** 0.1292 ± 0.0178

**Q.** And the “Optical Density at 570 nm” value ([3]; 1000 μg/ml, 24 h)?
**A.** 0.1204 ± 0.0176

**Q.** What about the “Optical Density at 570 nm” value ([3]; 1000 μg/ml, 48 h) of the same molecule?
**A.** 0.1201 ± 0.0342

**Q.** And the “order of inhibitory effect” value ([3]; rat pulmonary fibroblasts)?
**A.** AKF-PD>AKF-BR>pirfenidone

**Q.** And the activity inhibiting fibroblast [1]?
**A.** activities inhibiting fibroblast

**Q.** With C[C@H](CS)C(=O)N1CCC[C@H]1C(=O)O [Captopril] as the molecule, how does the “Histological Score for Lung Tissue, Mean” value [4] read?
**A.** 2.7143

**Q.** For CCOC(=O)[C@H](CCc1ccccc1)N[C@@H](C)C(=O)N1CCC[C@H]1C(=O)O [Enalapril, reference compound], which “Histological Score for Interstitial Compartment” value [5] is on record?
**A.** 9.21 ± 0.64

B1: γ-interferon: γ-interferon given i.m. 50,000 unit daily to disinfected mice (protein, UniProt P01580 23-155, looked up)
Interferon gamma: HGTVIESLESLNNYFNSSGIDVEEKSLFLDIWRNWQKDGDMKILQSQIISFYLRLFEVLKDNQAISNNISVIESHLITTFFSNSKAKKDAFMSIAKFEVNNPQVQRQAFNELIRVVHQLLPESSLRKRKRSRC
**Q.** Which “Schistosomo Egg Granuloma Area, Mean” value ([6]; granuloma with abundant eggs) does the source give for B1 here?
**A.** 83706.79 μm^2

**Q.** And the “Schistosomo Egg Granuloma Area, Mean” value ([6]; granuloma with few eggs)?
**A.** 32407.14 μm^2
